Where two headings read alike, the source gives them in different places.
Tests used:
Assay in all cases: cells
Design in all cases: Viability of PDAC cell lines, ATPlite luminescence, 11-dose single-agent curve fit
Capan-1 = system: Capan-1
Method in brief: (§1)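 cells (1000 to 5000 per well) seeded 24 h before drug addition in a screen at 0.2% final DMSO. Controls were drug-free wells (negative) and 5 µM staurosporine (positive).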

HPDE = settings: 72 h
Method in brief: as §1

PaTu-8988-T = settings: 72 h
Method in brief: as §1

PSN-1 = system: PSN-1
Method in brief: as §1

MiaPaCa-2 = system: MiaPaCa-2
Method in brief: as §1

PANC-1 = system: PANC-1
Method in brief: as §1

Suit2-07 = settings: 72 h
Method in brief: as §1

AsPC-1 = system: AsPC-1
Method in brief: as §1

Colo-357 = system: Colo-357
Method in brief: as §1

HuP-T4 = system: HuP-T4
Method in brief: as §1

Dan-G = settings: 72 h
Method in brief: as §1

FAMPAC = settings: 72 h
Method in brief: as §1

BxPC-3 = system: BxPC-3
Method in brief: as §1

[1] = Homo sapiens, CAPAN-1, 72 h, read-out: EC50 [nM]
[2] = Homo sapiens, PaTu 8988t, read-out: EC50 [nM]
[3] = Homo sapiens, PSN1, 72 h, read-out: EC50 [nM]
[4] = Homo sapiens, MIA PaCa-2, 72 h, read-out: EC50 [nM]
[5] = Homo sapiens, PANC-1, 72 h, read-out: EC50 [nM]
[6] = Homo sapiens, ASPC1, 72 h, read-out: EC50 [nM]
[7] = Homo sapiens, COLO357, 72 h, read-out: EC50 [nM]
[8] = Homo sapiens, HuP-T4, 72 h, read-out: EC50 [nM]
[9] = Homo sapiens, BXPC-3, 72 h, read-out: EC50 [nM]

Structure (SMILES) | EC50 (MiaPaCa-2; [4]) | EC50 (PANC-1; [5]) | EC50 (AsPC-1; [6]) | EC50 (Colo-357; [7]) | EC50 (BxPC-3; [9]) | EC50 (Capan-1; [1]) | EC50 (HPDE; HPDE, read-out: EC50 [nM]) | EC50 (PaTu-8988-T; [2]) | EC50 (PSN-1; [3]) | EC50 (Suit2-07; read-out: EC50 [nM]) | EC50 (HuP-T4; [8]) | EC50 (Dan-G; read-out: EC50 [nM]) | EC50 (FAMPAC; read-out: EC50 [nM]) | further results
O=C(Nc1cnn2ccc(N3CCC[C@@H]3c3cc(F)ccc3F)nc12)N1CC[C@H](O)C1 [Larotrectinib] |  |  |  |  |  |  |  |  |  |  |  |  |  | EC50 (Capan-1; 72 h, read-out: EC50): 3880 nM; EC50 (HPDE; read-out: EC50): 459 nM; EC50 (PaTu-8988-T; read-out: EC50): 678 nM; EC50 (PSN-1; 72 h, read-out: EC50): 270 nM; EC50 (MiaPaCa-2; 72 h, read-out: EC50): 53.6 nM; EC50 (PANC-1; 72 h, read-out: EC50): 211 nM; EC50 (Suit2-07; read-out: EC50): 196 nM; EC50 (AsPC-1; 72 h, read-out: EC50): 53.5 nM; EC50 (Colo-357; 72 h, read-out: EC50): 34.9 nM; EC50 (HuP-T4; 72 h, read-out: EC50): 148 nM; EC50 (Dan-G; read-out: EC50): 451 nM; EC50 (FAMPAC; read-out: EC50): 842 nM; EC50 (BxPC-3; 72 h, read-out: EC50): 357 nM
FC(F)(F)c1ccc(CNc2ccc(Cc3c[nH]c4ncc(Cl)cc34)cn2)cn1 [Pexidartinib] | 2640 nM | 2210 nM | 9890 nM | 10100 nM | 8880 nM | > 10000 nM | 10200 nM | 46.5 nM | 6940 nM | 1100 nM | 4690 nM | 6180 nM | 4000 nM | 
CCCS(=O)(=O)Nc1ccc(F)c(C(=O)c2c[nH]c3ncc(-c4ccc(Cl)cc4)cc23)c1F [Vemurafenib] | > 10000 nM | 6.65 nM | 869 nM | 5000 nM | > 10000 nM | > 10000 nM | > 10000 nM | 708 nM | > 10000 nM | 1590 nM | > 10000 nM | > 10000 nM | 2990 nM | 
N#CC1(c2ccc(NC(=O)c3cccnc3NCc3ccncc3)cc2)CCCC1 [Apatinib] | > 10000 nM | 2350 nM | 452 nM | 4280 nM | 5230 nM | > 10000 nM | 7430 nM | > 10000 nM | > 10000 nM | 1420 nM | 283 nM | 5380 nM | > 10000 nM | 
Cc1c(F)cc(C(=O)NC2CC2)cc1-c1ccc(C(=O)NCC(C)(C)C)cn1 [Losmapimod] | 449 nM | 95.7 nM | 361 nM | 26.1 nM | 536 nM | 150 nM | 25.6 nM | 1180 nM | 130 nM | 10.7 nM | 218 nM | 363 nM | 0.11 nM | 
N#CCC1(n2cc(-c3ncnc4[nH]ccc34)cn2)CN(C2CCN(C(=O)c3ccnc(C(F)(F)F)c3F)CC2)C1 [Itacitinib] | 770 nM | 21.2 nM | 17.1 nM | 75 nM | 52.1 nM | 142 nM | 873 nM | 292 nM | 124 nM | 72.1 nM | 316 nM | 3820 nM | 1420 nM | 
CC1(C)CNc2cc(NC(=O)c3cccnc3NCc3ccncc3)ccc21 [Motesanib] | 7350 nM | > 10000 nM | 9400 nM | 3910 nM | > 10000 nM | 9170 nM | 8730 nM | 455 nM | 2550 nM | 942 nM | 515 nM | > 10000 nM | > 10000 nM | 
O=S(=O)(c1cccc2cnccc12)N1CCCNCC1 [Fasudil] | 3390 nM | 5330 nM | 2.85 nM | 6850 nM | 805 nM | > 10000 nM | > 10000 nM | 1140 nM | 0.04 nM | 2790 nM | 609 nM | 2960 nM | > 10000 nM | 

Further lines, with some results ahead:

EC50 (MiaPaCa-2; [4]) | EC50 (PANC-1; [5]) | EC50 (AsPC-1; [6]) | EC50 (Colo-357; [7]) | EC50 (BxPC-3; [9]) | Structure (SMILES) | EC50 (Capan-1; [1]) | EC50 (HPDE; HPDE, read-out: EC50 [nM]) | EC50 (PaTu-8988-T; [2]) | EC50 (PSN-1; [3]) | EC50 (Suit2-07; read-out: EC50 [nM]) | EC50 (HuP-T4; [8]) | EC50 (Dan-G; read-out: EC50 [nM]) | EC50 (FAMPAC; read-out: EC50 [nM]) | further results
3700 nM | 3790 nM | > 10000 nM | > 10000 nM | 3610 nM | Cc1cn(-c2cc(NC(=O)c3ccc(C)c(Nc4nccc(-c5cccnc5)n4)c3)cc(C(F)(F)F)c2)cn1 [Nilotinib] | > 10000 nM | > 10000 nM | 5190 nM | > 10000 nM | 186 nM | 22.2 nM | > 10000 nM | > 10000 nM | 
3820 nM | 913 nM | > 10000 nM | > 10000 nM | > 10000 nM | Cc1ccc(Nc2nccc(N(C)c3ccc4c(C)n(C)nc4c3)n2)cc1S(N)(=O)=O [Pazopanib] | > 10000 nM | 2410 nM | 35.4 nM | 8400 nM | > 10000 nM | 135 nM | 4120 nM | 5020 nM | 
2520 nM | 804 nM | 292 nM | 515 nM | 1670 nM | CONC(=O)c1ccccc1Nc1cc(Nc2cc(C)nn2C(C)C)ncc1Cl [GSK2256098] | 1650 nM | 156 nM | 858 nM | 5120 nM | 6450 nM | 4790 nM | 3730 nM | 3020 nM | 
2650 nM | 8920 nM | 4980 nM | 6220 nM | 1270 nM | C[C@H]1Oc2cc(cnc2N)-c2c(nn(C)c2C#N)CN(C)C(=O)c2ccc(F)cc21 [Lorlatinib] | 1070 nM | 999 nM | 5400 nM | 554 nM | 3240 nM | 1320 nM | 3210 nM | 207 nM | 
8640 nM | 3950 nM | 114 nM | 226 nM | 2030 nM | C[C@@H](c1ccc2nccn2c1)n1nnc2ncc(-c3cnn(C)c3)nc21 [Volitinib] | > 10000 nM | 80 nM | > 10000 nM | 16.9 nM | 285 nM | 91.1 nM | 5780 nM | 1030 nM | 

Reference: publication PMC11876601 (Molecular Systems Biology, 2025)
